# According to patent US5827860A, “Peptidyl heterocycles useful in the treatment of thrombin related disorders” (Ortho Pharmaceutical Corporation, priority 1995, dated 1998):
# Assay: not given
# Details: rat, in vivo, iv
row,SMILES,t1/2 (time to half plasma elimination)
1,"CN[C@H](Cc1ccccc1)C(=O)N1CCC[C@H]1C(=O)N[C@@H](CCCNC(=N)N)C(=O)c1nc2ccccc2s1 [Compound 1, N-METHYL-D-PHENYLALANYL-N-[4-[(AMINOIMINOMETHYL)AMINO]-1S-[(BENXOTHIAZOL-2- YL)CARBONYL]BUTYL]-L-PROLINAMIDE]",19 min
2,CNC(Cc1ccccc1)C(=O)N1CCCC1C(=O)NC(CCCNC(=N)N)C(=O)c1nccs1 (centres unmarked) [Compound 4],16 min
3,CN[C@H](Cc1ccccc1)C(=O)N1CCC[C@H]1C(=O)N[C@@H](CCCNC(=N)N)C(=O)c1nc2ccc(C(=O)OC)cc2s1 [Compound 12],43 min
4,CN[C@H](Cc1ccccc1)C(=O)N1CCC[C@H]1C(=O)N[C@@H](CCCNC(=N)N)C(=O)c1nc2ccc(C(=O)O)cc2s1 [Compound 13],25 min
5,CN[C@H](Cc1ccccc1)C(=O)N1CCC[C@H]1C(=O)N[C@@H](CCCNC(=N)N)C(=O)c1nc2ccc(CO)cc2s1 [Compound 15],16 min
6,CN[C@H](Cc1ccccc1)C(=O)N1CCC[C@H]1C(=O)N[C@@H](CCCNC(=N)N)C(=O)c1nc2ccc(F)cc2s1 [Compound 17],8 min
7,CCOC(=O)c1csc(C(=O)[C@H](CCCNC(=N)N)NC(=O)[C@@H]2CCCN2C(=O)[C@@H](Cc2ccccc2)NC)n1 [Compound 19],14 min
8,CNC(Cc1ccccc1)C(=O)N1CCCC1C(=O)NC(CCCNC(=N)N)C(=O)c1nc2ccccc2[nH]1 (centres unmarked) [Compound 21],5 min
9,"CN[C@H](CC1CCCCC1)C(=O)N1CCC[C@H]1C(=O)N[C@@H](CCCNC(=N)N)C(=O)c1nc2ccccc2s1 [Compound 29, N-METHYL-D-CYCLOHEXYLALANYL-N-[4-[(AMINOIMINOMETHYL)AMINO]-1S-[(BENXOTHIAZOL-2-YL)CARBONYL]BUTYL]-L-PROLINAMIDE]",14 min
10,CN[C@H](Cc1c(F)c(F)c(F)c(F)c1F)C(=O)N1CCC[C@H]1C(=O)N[C@@H](CCCNC(=N)N)C(=O)c1nc2ccccc2s1 [Compound 30],6 min
11,"CN[C@H](Cc1ccc(F)cc1)C(=O)N1CCC[C@H]1C(=O)N[C@@H](CCCNC(=N)N)C(=O)c1nc2ccccc2s1 [Compound 32, N-METHYL-D-(4-FLUOROPHENYL)ALANYL-N-[4-[(AMINOIMINOMETHYL)AMINO]-1S-[(BENXOTHIAZOL-2-YL)CARBONYL]BUTYL]-L-PROLINAMIDE]",19 min
12,"CNC(C(=O)N1CCCC1C(=O)NC(CCCNC(=N)N)C(=O)c1nc2ccccc2s1)c1ccccc1 [Compound 33, N-METHYL-D-PHENYLGLYCYL-N-[4-[(AMINOIMINOMETHYL)AMINO]-1S-[(BENXOTHIAZOL-2- YL)CARBONYL]BUTYL]-L-PROLINAMIDE]",18 min
13,CC(=O)N[C@H](Cc1ccccc1)C(=O)N1CCC[C@H]1C(=O)N[C@@H](CCCNC(=N)N)C(=O)c1nc2ccccc2s1.O=C(O)C(F)(F)F [Compound 35],11 min
14,"CN[C@@H](C(=O)N1CCC[C@H]1C(=O)N[C@@H](CCCNC(=N)N)C(=O)c1nc2ccccc2s1)C1CCCCC1 [Compound 37, N-METHYL-D-CYCLOHEXYLGLYCYL-N-[4-[(AMINOIMINOMETHYL)AMINO]-1S-[(BENXOTHIAZOL-2-YL)CARBONYL]BUTYL]-L-PROLINAMIDE]",42 min
15,CN[C@H](Cc1ccccc1)C(=O)N1CCC[C@H]1C(=O)N[C@@H](CCCNC(=N)N)C(=O)c1nc2c(s1)CCCC2 [Compound 51],17 min
16,CN[C@H](Cc1ccccc1)C(=O)N1CCC[C@H]1C(=O)N[C@@H](CCCNC(=N)N)C(=O)c1nc2ccc3ccccc3c2s1 [Compound 52],5 min
17,CN[C@H](Cc1ccccc1)C(=O)N1CCC[C@H]1C(=O)N[C@@H](CCCNC(=N)N)C(=O)c1nc(C(=O)O)cs1 [Compound 54],15 min

# Assay: Ex vivo assay for duration of action after i.v. dosing (time to half plasma elimination)
# Details: male rats, from slope of V0 vs. time of plasma thrombin inhibition
# Description: An ex vivo assay was conducted to determine the duration of action of the compounds of Formula I. For this i.v. assay male rats (Long Evans, 350-500 g) were implanted with a teflon cannulae via the femoral artery while under anesthesia (pentobarbital i.p., 35 mg/kg). […] The animals were allowed to recover for at least 24 h after the surgical procedure.
# The test compound was dispersed in water and delivered to the animal (0.25 mL) via the femoral vein. […] A plasma sample was obtained by centrifuging the blood at 10,000 rpm for 5 min. This sample is analyzed for thrombin inhibition using the chromogenic assay, described below.
# Datum was collected over a 30 min period and the initial rate of substrate hydrolysis (V0 (mOD/min)) was calculated with an analysis program (Softmax, Molecular Devices).
# The time to half plasma elimination (t 1/2) was calculated from the slope of V0 vs. time, using the following equation: t 1/2=-1.6 slope.
row,SMILES,t1/2 (time to half plasma elimination)
1,CN[C@H](Cc1ccccc1)C(=O)N1CCC[C@H]1C(=O)N[C@@H](CCCNC(=N)N)C(=O)c1nc2ccc(O)cc2s1 [Compound 25],14 min
2,CNC(C(=O)N1CCC[C@H]1C(=O)N[C@@H](CCCNC(=N)N)C(=O)c1nc2ccccc2s1)c1ccccc1 (some centres unmarked) [Compound 34],26 min

# Assay: Ex vivo bioavailability assay, drug administered i.v. and p.o.
# Details: male rats, p.o. vs i.v., drug in plasma extrapolated from thrombin inhibition
# Description: Bioavailability was determined by an ex vivo assay which incorporated hydrolysis rates from drug administered both i.v. and p.o. In this assay male rats were prepared as described above with a teflon tube implanted in their femoral artery.
# A standard curve was generated by adding of drug or vehicle (100 μL) to whole blood (900 μL) followed by incubating (5 min) and centrifuging to obtain plasma. The percentage of thrombin inhibition was calculated by comparing the V0 of the vehicle to that of the drug treated samples. Datum from several runs were normalized with a statistical package (SAS) to generate a standard curve.
# The percentage of thrombin inhibition in the treated animals was calculated by comparing the V0 prior to treatment with the V0 obtained from samples collected after treatment. The percent inhibition was applied to the standard curve (generated above) using the statistical package (SAS) and the quantity of drug in the sample was extrapolated.
# Bioavailability (Bioavail.) was calculated from the plots of the extrapolated drug in sample vs. time for both i.v. and p.o. administration using the following equation:
# %Bioavail.=(i.v. dose administered/p.o. dose administered)×(area
# under p.o. curve/area under curve i.v.)
row,SMILES,Bioavail.
1,"CN[C@H](Cc1ccccc1)C(=O)N1CCC[C@H]1C(=O)N[C@@H](CCCNC(=N)N)C(=O)c1nc2ccccc2s1 [Compound 1, N-METHYL-D-PHENYLALANYL-N-[4-[(AMINOIMINOMETHYL)AMINO]-1S-[(BENXOTHIAZOL-2- YL)CARBONYL]BUTYL]-L-PROLINAMIDE]",1.2%
